Structures can show the parent of a compound that is named as a salt.
Experiments:
[1] = target: RON (human) (Homo sapiens, UniProt Q04912); test: RON kinase AlphaScreen assay (Km of ATP); format: biochemical; conditions: ATP at Km; at least duplicate experiments
Experimental: (§1) Person skilled in the art will appreciate that a variety of assay formats may be used to determine the activity of the compounds of this invention. For example, AlphaScreen (Amplified Luminescent Proximity Homogeneous Assay) technology was used with the kinases described below. Assay ATP concentrations for individual kinases are included in the text.
RON (human)—Km of ATP: RON assay is performed in a 384 well assay containing 200 ng/μL biotinylated poly(Glu,Tyr), 0.334 mM vanadate, desired concentration of ATP optimized for the enzyme in assay buffer (50 mM HEPES (pH=7.4), 12.5 mM MgCl2 and 1% glycerol). Desired compound is added in a final concentration of 1% DMSO with control being vehicle of DMSO alone. RON is diluted to the optimized (on a lot-by-lot basis) concentration in an enzyme diluent buffer (50 mM HEPES pH=7.4, 12.5 mM MgCl2 and 1% glycerol, 0.03% Brij35, 0.3 mM EGTA, lmM DTT, and 0.003% BSA). Enzyme is added to initiate the reaction and incubated for 30 min at RT. In subdued light, appropriate amount of PT66 donor and acceptor beads (diluted 1:260 from manufacturer's provision in a 25 mM Tris HCl (pH=7.5), 200 mM NaCl, 100 mM EDTA, 0.3% BSA buffer) are added to the wells. The plates, incubated for 1 h, are read on an AlphaQuest plate reader.

[2] = target: MET (human) (Homo sapiens, UniProt P08581); test: MET kinase AlphaScreen assay (Km of ATP); format: biochemical; conditions: ATP at Km; at least duplicate experiments
Experimental: as §1
MET (human)—Km of ATP: MET assay is performed in a 384 well assay containing 200 ng/μL biotinylated poly(Glu,Tyr), 0.334 mM vanadate, desired concentration of ATP optimized for the enzyme in assay buffer (50 mM HEPES (pH=7.4), 5 mM MgCl2, 5 mM MnCl2, and 1% glycerol). Desired compound is added in a final concentration of 1% DMSO with control being vehicle of DMSO alone. MET is diluted to the optimized concentration (optimized on a lot-by-lot basis) in an enzyme diluent buffer (50 mM Tris pH=7.4, 1% glycerol, 0.03% Brij35, 0.24 mM EGTA, 1 mM DTT, and 0.003% BSA). Enzyme is added to initiate the reaction and incubated for 60 min at RT. In subdued light, appropriate amount of PT66 donor and acceptor beads (diluted 1:260 from manufacturer's provision in a 25 mM Tris HCl (pH=7.5), 400 mM NaCl, 100 mM EDTA, 0.3% BSA buffer) are added to the wells. The plates, incubated for 1 h, are read on an AlphaQuest plate reader

RON (human), sequence (Q04912 25-1400): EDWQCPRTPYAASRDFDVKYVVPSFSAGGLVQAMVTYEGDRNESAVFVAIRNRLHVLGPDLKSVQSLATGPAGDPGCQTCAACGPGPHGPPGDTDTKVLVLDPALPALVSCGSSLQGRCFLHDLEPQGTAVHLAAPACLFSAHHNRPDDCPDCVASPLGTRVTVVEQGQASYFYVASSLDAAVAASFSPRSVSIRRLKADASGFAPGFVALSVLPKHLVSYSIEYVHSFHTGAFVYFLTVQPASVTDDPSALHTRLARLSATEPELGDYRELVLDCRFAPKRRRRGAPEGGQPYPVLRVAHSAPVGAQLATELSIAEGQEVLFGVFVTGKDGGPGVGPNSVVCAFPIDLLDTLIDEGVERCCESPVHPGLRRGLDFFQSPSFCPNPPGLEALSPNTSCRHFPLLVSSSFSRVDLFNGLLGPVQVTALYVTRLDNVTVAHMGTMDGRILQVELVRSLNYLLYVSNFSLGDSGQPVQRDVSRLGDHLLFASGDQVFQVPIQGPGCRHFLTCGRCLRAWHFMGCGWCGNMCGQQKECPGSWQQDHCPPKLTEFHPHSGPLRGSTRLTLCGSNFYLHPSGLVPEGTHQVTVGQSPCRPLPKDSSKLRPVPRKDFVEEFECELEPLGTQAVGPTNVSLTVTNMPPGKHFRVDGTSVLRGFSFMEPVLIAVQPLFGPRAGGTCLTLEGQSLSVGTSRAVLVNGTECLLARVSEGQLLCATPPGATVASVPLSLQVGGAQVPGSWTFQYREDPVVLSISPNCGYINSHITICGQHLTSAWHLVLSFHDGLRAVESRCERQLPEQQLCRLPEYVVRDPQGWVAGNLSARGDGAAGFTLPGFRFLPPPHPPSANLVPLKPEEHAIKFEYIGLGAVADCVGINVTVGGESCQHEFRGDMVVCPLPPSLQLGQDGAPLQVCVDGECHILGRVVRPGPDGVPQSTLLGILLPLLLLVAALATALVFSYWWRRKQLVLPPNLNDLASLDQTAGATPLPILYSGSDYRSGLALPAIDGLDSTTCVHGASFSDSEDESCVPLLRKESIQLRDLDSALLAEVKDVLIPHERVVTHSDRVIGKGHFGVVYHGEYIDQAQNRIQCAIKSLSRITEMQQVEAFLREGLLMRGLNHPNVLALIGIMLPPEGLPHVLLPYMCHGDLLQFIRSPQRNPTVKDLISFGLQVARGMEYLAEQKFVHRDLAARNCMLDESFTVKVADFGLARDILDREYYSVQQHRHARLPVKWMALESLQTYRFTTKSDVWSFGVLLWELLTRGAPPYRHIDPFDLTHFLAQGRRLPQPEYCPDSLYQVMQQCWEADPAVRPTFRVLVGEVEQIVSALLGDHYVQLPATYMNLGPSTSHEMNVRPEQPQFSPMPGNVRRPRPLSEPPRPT
MET (human), sequence (P08581 25-1390): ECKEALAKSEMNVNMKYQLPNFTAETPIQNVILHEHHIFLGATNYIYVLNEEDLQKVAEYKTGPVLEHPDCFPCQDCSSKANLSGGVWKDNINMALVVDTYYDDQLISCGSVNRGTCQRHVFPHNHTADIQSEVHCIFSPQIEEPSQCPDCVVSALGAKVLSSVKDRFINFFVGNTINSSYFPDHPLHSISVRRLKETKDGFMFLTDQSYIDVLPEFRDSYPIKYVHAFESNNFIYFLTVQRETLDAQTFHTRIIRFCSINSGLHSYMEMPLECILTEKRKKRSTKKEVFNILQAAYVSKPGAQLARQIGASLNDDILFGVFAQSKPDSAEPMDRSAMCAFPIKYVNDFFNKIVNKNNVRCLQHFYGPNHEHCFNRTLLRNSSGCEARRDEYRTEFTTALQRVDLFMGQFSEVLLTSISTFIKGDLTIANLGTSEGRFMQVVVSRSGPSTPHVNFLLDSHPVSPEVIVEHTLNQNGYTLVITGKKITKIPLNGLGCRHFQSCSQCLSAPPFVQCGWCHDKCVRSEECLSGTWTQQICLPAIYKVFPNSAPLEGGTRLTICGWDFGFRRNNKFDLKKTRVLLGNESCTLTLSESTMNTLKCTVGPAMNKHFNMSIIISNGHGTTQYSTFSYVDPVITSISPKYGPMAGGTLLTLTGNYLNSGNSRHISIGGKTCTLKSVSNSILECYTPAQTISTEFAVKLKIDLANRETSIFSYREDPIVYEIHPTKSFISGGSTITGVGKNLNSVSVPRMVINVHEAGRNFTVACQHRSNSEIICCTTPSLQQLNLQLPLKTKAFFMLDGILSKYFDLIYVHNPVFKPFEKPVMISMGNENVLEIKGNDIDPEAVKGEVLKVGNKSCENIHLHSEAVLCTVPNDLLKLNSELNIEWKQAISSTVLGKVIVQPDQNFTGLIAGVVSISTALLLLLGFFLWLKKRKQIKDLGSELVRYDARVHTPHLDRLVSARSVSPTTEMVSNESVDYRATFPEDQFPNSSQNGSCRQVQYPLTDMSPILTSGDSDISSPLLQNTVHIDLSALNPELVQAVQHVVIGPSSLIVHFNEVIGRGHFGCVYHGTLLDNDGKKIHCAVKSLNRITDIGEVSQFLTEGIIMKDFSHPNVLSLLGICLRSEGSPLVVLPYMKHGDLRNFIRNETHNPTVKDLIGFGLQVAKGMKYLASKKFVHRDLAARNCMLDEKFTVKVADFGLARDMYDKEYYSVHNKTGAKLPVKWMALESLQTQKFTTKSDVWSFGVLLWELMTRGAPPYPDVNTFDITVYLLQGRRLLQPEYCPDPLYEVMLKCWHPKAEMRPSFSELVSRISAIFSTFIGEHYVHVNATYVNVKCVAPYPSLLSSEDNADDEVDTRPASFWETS

| SMILES | IC50 [1] | IC50 [2] |
| --- | --- | --- |
| Nc1ncc(-c2cnn(C3CCNCC3)c2)cc1-c1cc2c(-c3cccnc3)ccc(F)c2cn1 [Example 54, 3-(8-Fluoro-5-pyridin-3-ylisoquinolin-3-yl)-5-(1-piperidin-4-yl-1H-pyrazol-4-yl)-pyridin-2-ylamine trihydrochloride pyridin-2-ylamine trihydrochloride] | 1000 to 20000 nM | 100 to 1000 nM |
| Nc1ncc(-c2cnn(C3CCNCC3)c2)cc1-c1cc2c(-c3nccs3)ccc(F)c2cn1 [Example 55, 3-(8-Fluoro-5-thiazol-2-ylisoquinolin-3-yl)-5-(1-piperidin-4-yl-1H-pyrazol-4-yl)-pyridin-2-ylamine trihydrochloride] | 1000 to 20000 nM | 100 to 1000 nM |
| Nc1ncc(-c2cnn(C3CCNCC3)c2)cc1-c1cc2c(-c3cncs3)ccc(F)c2cn1 [Example 56, 3-(8-Fluoro-5-thiazol-5-ylisoquinolin-3-yl)-5-(1-piperidin-4-yl-1H-pyrazol-4-yl)-pyridin-2-ylamine trihydrochloride] | 100 to 1000 nM | 100 to 1000 nM |
| Nc1ncc(-c2cnn(C3CCN(C=O)CC3)c2)cc1-c1cc2c(Cl)ccc(F)c2cn1 [Example 57, 4-4-[6-Amino-5-(5-chloro-8-fluoroisoquinolin-3-yl)-pyridin-3-yl]-pyrazol-1-ylpiperidine-1-carbaldehyde] | 1000 to 20000 nM | 100 to 1000 nM |
| CN1CCC(n2cc(-c3cnc(N)c(-c4cc5c(Cl)ccc(F)c5cn4)c3)cn2)CC1 [Example 58, 3-(5-Chloro-8-fluoroisoquinolin-3-yl)-5-[1-(1-methylpiperidin-4-yl)-1H-pyrazol-4-yl]-pyridin-2-ylamine] | 100 to 1000 nM | 100 to 1000 nM |
| CN1CCN(c2ncc(-c3cnc(N)c(-c4cc5c(Cl)ccc(F)c5cn4)c3)s2)CC1 [Example 60, 3-(5-Chloro-8-fluoroisoquinolin-3-yl)-5-[2-(4-methylpiperazin-1-yl)-thiazol-5-yl]-pyridin-2-ylamine trihydrochloride] | 1000 to 20000 nM | 1000 to 20000 nM |
| Nc1ncc(-c2cnc(N3CCOCC3)s2)cc1-c1cc2c(Cl)ccc(F)c2cn1 [Example 61, 3-(5-Chloro-8-fluoroisoquinolin-3-yl)-5-(2-morpholin-4-ylthiazol-5-yl)-pyridin-2-ylamine] | > 20000 nM | > 20000 nM |
| Nc1ncc(-c2cnn([C@@H]3CCNC3)c2)cc1-c1cc2c(Cl)ccc(F)c2cn1 [Example 62, 3-(5-Chloro-8-fluoroisoquinolin-3-yl)-5-((R)-1-pyrrolidin-3-yl-1H-pyrazol-4-yl)-pyridin-2-ylamine trihydrochloride] | 100 to 1000 nM | 100 to 1000 nM |
| Nc1ncc(-c2cnn([C@H]3CCNC3)c2)cc1-c1cc2c(Cl)ccc(F)c2cn1 [Example 63, 3-(5-Chloro-8-fluoroisoquinolin-3-yl)-5-((S)-1-pyrrolidin-3-yl-1H-pyrazol-4-yl)-pyridin-2-ylamine trihydrochloride] | 100 to 1000 nM | 100 to 1000 nM |
| CN1C2CCC1CC(n1cc(-c3cnc(N)c(-c4cc5c(Cl)ccc(F)c5cn4)c3)cn1)C2 (stereo not drawn) [Example 64, 3-(5-Chloro-8-fluoroisoquinolin-3-yl)-5-[1-(8-methyl-8-azabicyclo [3.2.1]-oct-3-yl)-1H-pyrazol-4-yl]-pyridin-2-ylamine] | 100 to 1000 nM | 100 to 1000 nM |
| Cn1cc(-c2cnc(N)c(-c3cc4c(Cl)ccc(F)c4cn3)c2)cn1 [Example 65, 3-(5-Chloro-8-fluoroisoquinolin-3-yl)-5-(1-methyl-1H-pyrazol-4-yl)-pyridin-2-ylamine bis-hydrochloride] | 1000 to 20000 nM | 1000 to 20000 nM |
| CC(C)n1cc(-c2cnc(N)c(-c3cc4c(Cl)ccc(F)c4cn3)c2)cn1 [Example 66, 3-(5-Chloro-8-fluoroisoquinolin-3-yl)-5-(1-isopropyl-1H-pyrazol-4-yl)-pyridin-2-ylamine bis-hydrochloride] | 1000 to 20000 nM | 1000 to 20000 nM |
| CN(C)C(=O)N1CCC(n2cc(-c3cnc(N)c(-c4cc5c(Cl)ccc(F)c5cn4)c3)cn2)CC1 [Example 67, 4-4-[6-Amino-5-(5-chloro-8-fluoroisoquinolin-3-yl)-pyridin-3-yl]-pyrazol-1-ylpiperidine-1-carboxylic acid dimethylamide bis-hydrochloride] | 100 to 1000 nM | 100 to 1000 nM |
| NC(=O)N1CCC(n2cc(-c3cnc(N)c(-c4cc5c(Cl)ccc(F)c5cn4)c3)cn2)CC1 [Example 68, 4-4-[6-Amino-5-(5-chloro-8-fluoroisoquinolin-3-yl)-pyridin-3-yl]-pyrazol-1-ylpiperidine-1-carboxamide bis-hydrochloride] | 100 to 1000 nM | 100 to 1000 nM |
| Nc1ncc(-c2cnn(C3CCN(CC(F)(F)F)CC3)c2)cc1-c1cc2c(Cl)ccc(F)c2cn1 [Example 69, 3-(5-Chloro-8-fluoroisoquinolin-3-yl)-5-1-[1-(2,2,2-trifluoroethyl)-piperidin-4-yl]-1H-pyrazol-4-yl-pyridin-2-ylamine bis-hydrochloride] | 1000 to 20000 nM | 1000 to 20000 nM |
| COCCN1CCC(n2cc(-c3cnc(N)c(-c4cc5c(Cl)ccc(F)c5cn4)c3)cn2)CC1 [Example 70, 3-(5-Chloro-8-fluoroisoquinolin-3-yl)-5-1-[1-(2-methoxyethyl)-piperidin-4-yl]-1H-pyrazol-4-yl-pyridin-2-ylamine] | 1000 to 20000 nM | 100 to 1000 nM |
| CC(C)(C)OC(=O)N1CC=C(c2cnc(N)c(-c3cc4c(Cl)ccc(F)c4cn3)c2)CC1 [Example 80] | 1000 to 20000 nM | 1000 to 20000 nM |

Results, then the compound that gave them:

| IC50 [1] | IC50 [2] | SMILES |
| --- | --- | --- |
| 100 to 1000 nM | ≤ 100 nM | CN(C)C(=O)[C@@H]1C[C@H](n2cc(-c3cnc(N)c(-c4cc5c(Cl)ccc(F)c5cn4)c3)cn2)CN1 [Example 71, (2S,4S)-4-{4-[6-Amino-5-(5-chloro-8-fluoroisoquinolin-3-yl)-pyridin-3-yl]-pyrazol-1-yl}-pyrrolidine-2-carboxylic acid dimethylamide] |
| 100 to 1000 nM | ≤ 100 nM | Nc1ncc(-c2cnn([C@@H]3CN[C@H](C(=O)N4CCOCC4)C3)c2)cc1-c1cc2c(Cl)ccc(F)c2cn1 [Example 72, ((2S,4S)-4-{4-[6-Amino-5-(5-chloro-8-fluoroisoquinolin-3-yl)-pyridin-3-yl]-pyrazol-1-yl}-pyrrolidin-2-yl)-morpholin-4-ylmethanone] |
| 100 to 1000 nM | 100 to 1000 nM | Nc1ncc(-c2cnn([C@@H]3CN[C@H](C(=O)N4CCCC4)C3)c2)cc1-c1cc2c(Cl)ccc(F)c2cn1 [Example 73, ((2S,4S)-4-{4-[6-Amino-5-(5-chloro-8-fluoroisoquinolin-3-yl)-pyridin-3-yl]-pyrazol-1-yl}-pyrrolidin-2-yl)-pyrrolidin-1-ylmethanone] |
| 1000 to 20000 nM | 1000 to 20000 nM | COCCNC(=O)[C@@H]1C[C@H](n2cc(-c3cnc(N)c(-c4cc5c(Cl)ccc(F)c5cn4)c3)cn2)CN1 [Example 74, (2S,4S)-4-{4-[6-Amino-5-(5-chloro-8-fluoroisoquinolin-3-yl)-pyridin-3-yl]-pyrazol-1-yl}-pyrrolidine-2-carboxylic acid (2-methoxyethyl)-amide] |
| > 20000 nM | > 20000 nM | Nc1ncc(-c2ccsc2)cc1-c1cc2c(Cl)ccc(F)c2cn1 [Example 76, 3-(5-Chloro-8-fluoroisoquinolin-3-yl)-5-thiophen-3-ylpyridin-2-amine] |
| > 20000 nM | > 20000 nM | Nc1ncc(-c2ccccc2)cc1-c1cc2c(Cl)ccc(F)c2cn1 [Example 77, 3-(5-Chloro-8-fluoroisoquinolin-3-yl)-5-phenylpyridin-2-amine] |
| 1000 to 20000 nM | 1000 to 20000 nM | Nc1ncc(-c2cccnc2)cc1-c1cc2c(Cl)ccc(F)c2cn1 [Example 78, 5-(5-Chloro-8-fluoroisoquinolin-3-yl)-3,3′-bipyridin-6-amine] |
| 1000 to 20000 nM | 1000 to 20000 nM | Nc1ncc(-c2ccncc2)cc1-c1cc2c(Cl)ccc(F)c2cn1 [Example 79, 5-(5-Chloro-8-fluoroisoquinolin-3-yl)-3,4′-bipyridin-6-amine] |
| 1000 to 20000 nM | 1000 to 20000 nM | Nc1ccc(-c2cnc(N)c(-c3cc4c(Cl)ccc(F)c4cn3)c2)cn1 [Example 81, 5-(5-Chloro-8-fluoroisoquinolin-3-yl)-3,3′-bipyridine-6,6′-diamine] |
| > 20000 nM | 1000 to 20000 nM | CC(=O)Nc1ccc(-c2cnc(N)c(-c3cc4c(Cl)ccc(F)c4cn3)c2)cc1 [Example 82, N-4-[6-Amino-5-(5-chloro-8-fluoroisoquinolin-3-yl)pyridin-3-yl]phenylacetamide] |

Source: patent publication US8178668B2, “2-aminopyridine kinase inhibitors” (OSI Pharmaceuticals, LLC, priority 2008, dated 2012)
